Assays:
[1] = test system: mRNAs of ACC1, ACC2, FAS, LPL, SCD1; experiment: Expression of genes involved in lipid metabolism in DIO mice (real-time quantitative PCR); format: in vivo, C57BL/6 mice; settings: 50 mg/kg daily oral, vs control group
Procedure: In order to investigate anti-obesity effects of β-lapachone, β-lapachone was administered daily to diet-induced obesity (DIO) mice at a dose of 50 mg/kg via an oral route, and an attempt was made to confirm levels of mRNAs of acetyl CoA carboxylase (ACC) 1 (7,8), ACC2 (9), fatty acid synthase (FAS) (10,11), lipoprotein lipase (LPL) (12-15), and stearoyl-CoA desaturase 1 (SCD1) (16,17), which participate in lipid metabolism in the liver and gonadal adipose tissues, by real-time quantitative PCR. These enzymes are very important for lipid metabolism; it is known that ACC catalyzes formation of malonyl CoA from acetyl CoA, FAS catalyzes formation of palmitate from malonyl CoA, and SCD1 catalyzes formation of monounsaturated fat, thus playing a critical role in formation of triacylglycerol, a major energy store. As such, these enzymes are closely correlated with obesity, diabetes, and lipid metabolism-related diseases. […] Therefore, from the results of such increased or decreased expression of genes for the above-mentioned enzymes, it can be inferred that β-lapachone will be therapeutically effective substance for the treatment of metabolic syndromes.

[2] = test system: C57BL/6JL Lep ob/Lep ob mice; experiment: Blood lipid, glucose and enzyme levels in obese mice (ob/ob); format: in vivo; design: unit not given here; settings: 100 mg/kg for 26 days
Excerpt: 10-week-old C57BL/6JL Lep ob/Lep ob male mice having obesity characteristics and predisposition were purchased from Daehan Biolink Co., Ltd. (Chungchongbuk-do, Korea). Animals were raised in a breeding room maintained at a temperature of 23 C, 55% humidity, illumination of 300 to 500 lux, a 12-h light/dark (L/D) cycle, and ventilation of 10 to 18 times/hr. Animals were fed ad libitum pellets of Purina Rodent Laboratory Chow 5001 (purchased from Purina Mills Inc., St. Louis, Mo., USA) as a solid feed for experimental animals and tap water as drinking water. Mice were allowed to acclimate to new environment of the breeding room for two weeks and were then administered some pyrano-o-naphthoquinone and furano-o-naphthoquinone derivatives synthesized according to the present invention at doses of 100 mg/kg for 26 days. Observation was made on changes in body weight, blood glucose and dietary intake, with respect to a time course of administration. After administration was complete, Computed Tomography (CT) was performed to confirm changes in adipose tissue distribution of animals, changes in fat distribution of tissues in various organs, changes in sizes of adipocytes, and changes in glucose, lipid and enzyme levels in blood and liver.

[3] = test system: mRNAs for HK2, GLUT2 and GLUT4; experiment: Gene expression of proteins involved in glucose metabolism in DIO mice; format: in vivo, C57BL/6 mice; settings: 50 mg/kg daily oral, liver and gonadal adipose tissues, vs control group
Procedure: β-lapachone was administered daily to diet-induced obesity (DIO) mice at a dose of 50 mg/kg via an oral route, and levels of mRNAs for hexokinase 2 (HK2) (21,22), glucose transporter (GLUT) 2 and GLUT4 (18,19,20) in the liver and gonadal adipose tissues were confirmed by real-time quantitative PCR. GLUT is well-known as a protein that mediates intracellular uptake and expenditure of blood glucose in organs such as liver, adipocytes and myoblast cells, whereas HK2, an enzyme belonging to a glucokinase class, phosphorylates […] that are thus allowed to enter glycolytic pathways. […] Increased levels of GLUT2 and GLUT4 facilitate intracellular uptake of blood glucose, thus presenting the possibility of β-lapachone as an anti-diabetic drug.

[4] = test system: endothelial nitric oxide synthase (eNOS); experiment: Phosphorylation of eNOS in HUVEC; format: cell-based, Human; settings: 10 μM
Procedure: It is well-known that activation of AMPK activates NRF-1 and facilitates mitochondrial biogenesis. In addition, NO/cGMP activates PGC-1a and NRF-1 to facilitate mitochondrial biogenesis. In order to ascertain whether β-lapachone, which activates AMPK, is involved in production of nitric oxide (NO), a degree of phosphorylation, increasing the activity of endothelial nitric oxide synthase (eNOS), was determined. In order to examine phosphorylation of eNOS by the action of β-lapachone, Human Umbilical Vein Endothelial Cells (HUVEC) were seeded onto a 60-mm plate at a density of 1×10^5 cells, and cultured in EBM2+5% FBS medium for 24 hours. The culture medium was replaced with a serum-free EBM2 medium, and cells were treated with β-lapachone (10 μM) for a predetermined period of time. Phosphorylated eNOS was observed using Anti-pS1177 eNOS.

DIO C57BL/6 mice = experiment: Respiratory Quotient (RQ), indirect calorimeter; format: in vivo; settings: measured for 7 hours, vs vehicle-administered group and control group
Procedure: FIG. 24 is a graph showing effects of β-lapachone on Respiratory Quotient (RQ) after administration of β-lapachone to DIO C57BL/6 mice.
This Example was intended to examine effects of β-lapachone on fat metabolism via measurement of Respiratory Quotient (RQ). Oxygen consumption and carbon dioxide production were measured using an Oxyscan open-circuit indirect calorimeter (AccuScan Instruments, Columbus, Ohio). This apparatus consisted of enclosed acrylic chambers (21×21×21 cm). Fresh air was drawn into each chamber at a rate of 1500 ml/min and then O2 and CO2 were allowed to pass through detectors. The concentrations of the gases were recorded in ml/kg body weight/min. RQ was calculated as the volume of CO2 produced (VCO2) divided by the volume of O2 consumed (VO2). A β-lapachone-administered group, a vehicle-administered group and a control group were placed in each apparatus, and RQ was measured for 7 hours. For acclimation of animal to new environment, mice were placed in the apparatus 2 hours prior to measurement.

[5] = liver and gonadal adipose tissues

SMILES: CC1(C)CCC2=C(O1)c1ccccc1C(=O)C2=O [Compound 1, β-Lapachone]
- expression level of mRNA of ACC1 [1, 5]: remarkably decreased
- expression level of mRNA of ACC2 [1, 5]: remarkably decreased
- expression level of mRNA of FAS [1, 5]: remarkably decreased
- expression level of mRNA of LPL (listed among decreased) [1, 5]: remarkably decreased
- expression level of mRNA of SCD1 [1, 5]: remarkably decreased
- LPL mRNA levels, increase [1]: 2 fold
- Cholesterol [2]: 121
- GOT [2]: 42
- GPT [2]: 39
- Glucose [2]: 120
- Triglyceride [2]: 143
- GLUT2 mRNA expression [3]: significant increases
- GLUT4 mRNA expression [3]: significant increases
- HK2 mRNA level [3]: decreased
- phosphorylation of eNOS after the maximum [4]: gradually diminished, thereby not observed 2 hours later
- time of maximum increase of phosphorylation of eNOS (Anti-pS1177 eNOS) [4]: 30 min
- Respiratory Quotient (RQ) (DIO C57BL/6 mice): significant difference in a RQ value
